Measurements: PubChem BioAssay (NCI)
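Five compound concentrations were applied to cells in 96-well plates for 48 hours; endpoints were derived by simple linear interpolation of the resulting dose-response curve. At the GI50, growth is halved. TGI: total growth inhibition.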

Columns and labels:
Assay in all cases: growth of human tumour cells (NCI), 48 h
[1] = tested on: BT-549 breast
[2] = tested on: SNB-19 CNS
[3] = tested on: SNB-75 CNS
[4] = tested on: HT29 colon
[5] = tested on: SF-295 CNS
[6] = tested on: HCC-2998 colon
[7] = tested on: SF-268 CNS
[8] = tested on: RPMI-8226 leukemia
[9] = tested on: HCT-116 colon
[10] = tested on: UO-31 renal

In the case of O=c1oc2ccc(I)cc2c(=O)n1-c1ccc(Br)cc1F, the GI50 [1] is reported as 0.525 µM, the TGI [1] is reported as 2.67 µM and the GI50 [2] is reported as 0.434 µM. For the same molecule, the TGI [2] was > 63.5 µM, the GI50 [3] was 0.374 µM and the TGI [3] was 2.48 µM. The GI50 [4] was 3.3 µM, the TGI [4] was 13.5 µM and the GI50 [5] was 1.72 µM. For the same molecule, the TGI [5] was 3.41 µM, the GI50 [6] was 2.98 µM and the TGI [6] was 9.5 µM. The GI50 [7] was 0.673 µM, the TGI [7] was 8.52 µM and the GI50 [8] was 0.398 µM. For the same molecule, the TGI [8] was 2.57 µM, the GI50 [9] was 0.621 µM and the TGI [9] was 2.38 µM. For the same molecule, the GI50 [10] was 0.33 µM and the TGI [10] was 2.72 µM.

For O=c1c2ccccc2sc2c(NCCCNCCO)nc3ccccc3c12, the GI50 [1] was 2.81 µM, the TGI [1] was 11.1 µM and the GI50 [2] was 2.02 µM. For the same molecule, the TGI [2] was 5.13 µM, the GI50 [3] was 1.64 µM and the TGI [3] was 4.32 µM. It also gave a GI50 [4] of 1.51 µM, a TGI [4] of 2.97 µM and a GI50 [5] of 1.83 µM. It also gave a TGI [5] of 4.11 µM, a GI50 [6] of 1.72 µM and a TGI [6] of 3.64 µM. For the same molecule, the GI50 [7] was 1.69 µM, the TGI [7] was 4.24 µM and the GI50 [8] was 1.92 µM. It also gave a TGI [8] of 4.89 µM, a GI50 [9] of 1.3 µM and a TGI [9] of 2.6 µM. It also gave a GI50 [10] of 1.18 µM and a TGI [10] of 3 µM.

CNC(=O)c1ccc(N2C(=S)N(c3cnc(C#N)c(C(F)(F)F)c3)C(=O)C23CCC3)cc1F was tested, and the GI50 [1] was > 77 µM, the TGI [1] was > 100 µM and the GI50 [2] was > 100 µM. The TGI [2] was > 100 µM, the GI50 [3] was > 100 µM and the TGI [3] was > 100 µM. The GI50 [4] was > 100 µM, the TGI [4] was > 100 µM and the GI50 [5] was > 100 µM. For the same molecule, the TGI [5] was > 100 µM, the GI50 [6] was > 100 µM and the TGI [6] was > 100 µM. The GI50 [7] was > 100 µM, the TGI [7] was > 100 µM and the GI50 [8] was 59.3 µM. The TGI [8] was > 100 µM, the GI50 [9] was > 95.4 µM and the TGI [9] was > 100 µM. For the same molecule, the GI50 [10] was > 72.1 µM and the TGI [10] was > 100 µM.

In the case of Cc1c(-c2cnccn2)ssc1=S, the TGI [1] is reported as 68.5 µM, the TGI [2] is reported as > 100 µM and the TGI [3] is reported as 59.8 µM. The TGI [4] was > 100 µM, the TGI [5] was > 95.1 µM and the TGI [6] was > 100 µM. The TGI [7] was 99 µM, the TGI [8] was > 100 µM and the TGI [9] was > 100 µM. For the same molecule, the TGI [10] was > 89.7 µM.

In the case of COc1ccc(Nc2nc3cc(N)cc(N)c3nc2-c2ccccc2)cc1, the GI50 [1] is reported as 13.4 µM, the TGI [1] is reported as 31.9 µM and the GI50 [2] is reported as 33.8 µM. For the same molecule, the TGI [2] was > 100 µM, the GI50 [3] was 14.6 µM and the TGI [3] was 42.6 µM. For the same molecule, the TGI [4] was 42.7 µM, the GI50 [5] was 31.9 µM and the TGI [5] was > 100 µM. The GI50 [6] was 28.1 µM, the TGI [6] was > 100 µM and the GI50 [7] was 13 µM. For the same molecule, the TGI [7] was 30.6 µM, the GI50 [8] was 19.1 µM and the TGI [8] was > 100 µM. It also gave a GI50 [9] of 14.9 µM, a TGI [9] of 28.1 µM and a GI50 [10] of 16.6 µM. For the same molecule, the TGI [10] was 34.2 µM.

With Oc1c(Cl)cc(Cl)c(Cl)c1CNCCNCc1c(O)c(Cl)cc(Cl)c1Cl the GI50 [1] was 2.67 µM, the TGI [1] was 10 µM and the GI50 [2] was 1.49 µM. It also gave a TGI [2] of 11.3 µM, a GI50 [3] of 2.43 µM and a TGI [3] of 10.6 µM. For the same molecule, the GI50 [4] was 5.83 µM, the TGI [4] was > 50 µM and the GI50 [5] was 1.26 µM. For the same molecule, the TGI [5] was 20.3 µM, the GI50 [6] was 2.69 µM and the TGI [6] was > 50 µM. For the same molecule, the GI50 [7] was 0.997 µM, the TGI [7] was 12.1 µM and the GI50 [8] was 1.51 µM. For the same molecule, the TGI [8] was > 50 µM, the GI50 [9] was 0.731 µM and the TGI [9] was 8.52 µM. The GI50 [10] was 0.625 µM and the TGI [10] was 6.42 µM.

With COc1cc2c(cc1OC(C)C)[C@H](c1ccc(Cl)cc1)N(c1ccc(N(C)CC3CCC(N4CCN(C)C(=O)C4)CC3)cc1)C(=O)C2 (some centres undefined) the GI50 [1] was 2.18 µM, the TGI [1] was 7.7 µM and the GI50 [2] was 4.07 µM. The TGI [2] was 14.7 µM, the GI50 [3] was 2.95 µM and the TGI [3] was 8.68 µM. For the same molecule, the GI50 [4] was 2.7 µM, the TGI [4] was 7.79 µM and the GI50 [5] was 2.16 µM. It also gave a TGI [5] of 5.46 µM, a GI50 [6] of 2.59 µM and a TGI [6] of 7.07 µM. The GI50 [7] was 3.01 µM, the TGI [7] was 8.72 µM and the GI50 [8] was 2.13 µM. It also gave a TGI [8] of 4.76 µM, a GI50 [9] of 0.447 µM and a TGI [9] of 2.48 µM. It also gave a GI50 [10] of 0.305 µM and a TGI [10] of 2.22 µM.

For COc1cc(/C=C/c2cc(/C=C/c3ccc(O)c(OC)c3)n(C(=O)c3ccc(Cl)cc3)n2)ccc1O, the GI50 [1] was 1.83 µM, the TGI [1] was 8.32 µM and the GI50 [2] was 2.8 µM. For the same molecule, the TGI [2] was 12.1 µM, the GI50 [3] was 1.99 µM and the TGI [3] was 10.3 µM. The GI50 [4] was 3.42 µM, the TGI [4] was > 100 µM and the GI50 [5] was 3.13 µM. For the same molecule, the TGI [5] was 12.4 µM, the GI50 [6] was 3.94 µM and the TGI [6] was 12.8 µM. It also gave a GI50 [7] of 2.65 µM, a TGI [7] of 13.6 µM and a GI50 [8] of 1.83 µM. It also gave a TGI [8] of 6.33 µM, a GI50 [9] of 2.15 µM and a TGI [9] of 47.9 µM. The GI50 [10] was 1.39 µM and the TGI [10] was 10.1 µM.

In the case of COc1ccc(C(=O)C(CN(C)C)CN(C)C)cc1, the GI50 [1] is reported as 15.3 µM, the TGI [1] is reported as 28.8 µM and the GI50 [2] is reported as 16.3 µM. It also gave a TGI [2] of 33.1 µM, a GI50 [3] of 11.4 µM and a TGI [3] of 26.5 µM. The GI50 [4] was 2.3 µM, the TGI [4] was 5.77 µM and the GI50 [5] was 21.2 µM. For the same molecule, the TGI [5] was 52.2 µM, the GI50 [6] was 15.9 µM and the TGI [6] was 30 µM. It also gave a GI50 [7] of 13.7 µM, a TGI [7] of 42.3 µM and a GI50 [8] of 2.45 µM. It also gave a TGI [8] of 6.67 µM, a GI50 [9] of 1.3 µM and a TGI [9] of 2.63 µM. The GI50 [10] was 1.37 µM and the TGI [10] was 2.91 µM.

Cc1onc(-c2ccccc2)c1C(=O)N/N=C/c1cc(Cl)cc(Cl)c1O showed a GI50 [1] of 12.1 µM, a TGI [1] of 49.4 µM and a GI50 [2] of 4.12 µM. For the same molecule, the TGI [2] was > 100 µM, the GI50 [3] was 6.75 µM and the TGI [3] was > 100 µM. It also gave a GI50 [4] of 8.63 µM, a TGI [4] of 58.7 µM and a GI50 [5] of 2.05 µM. It also gave a TGI [5] of 11.3 µM, a GI50 [6] of 4.13 µM and a TGI [6] of 18.2 µM. The GI50 [7] was 3.44 µM, the TGI [7] was > 100 µM and the GI50 [8] was 5.61 µM. For the same molecule, the TGI [8] was 49.7 µM, the GI50 [9] was 4.11 µM and the TGI [9] was > 100 µM. For the same molecule, the GI50 [10] was 1.83 µM and the TGI [10] was 12.9 µM.

O=C1N[C@@H]2[C@@H](O)[C@@H](O)[C@H](O)C[C@H]2c2cc3c(c(O)c21)OCCO3 gave a GI50 [1] of 0.301 µM, a TGI [1] of 1.25 µM and a GI50 [2] of 0.179 µM. For the same molecule, the TGI [2] was 1.02 µM, the GI50 [3] was 0.466 µM and the TGI [3] was 2.62 µM. The GI50 [4] was 0.315 µM, the TGI [4] was 2.08 µM and the GI50 [5] was 0.388 µM. The TGI [5] was 2.65 µM, the GI50 [6] was 0.227 µM and the TGI [6] was 0.765 µM. It also gave a GI50 [7] of 0.247 µM, a TGI [7] of 1.08 µM and a GI50 [8] of 0.256 µM. The TGI [8] was 0.91 µM, the GI50 [9] was 0.107 µM and the TGI [9] was 1.22 µM. It also gave a GI50 [10] of 0.294 µM and a TGI [10] of 1.72 µM.

NS(=O)(=O)OC[C@H]1C[C@@H](Nc2ccnc3cc(-c4cccc(SC(F)(F)F)c4)nn23)[C@H](O)[C@@H]1O gave a GI50 [1] of 0.0193 µM, a TGI [1] of 0.0484 µM and a GI50 [2] of 0.0301 µM. The TGI [2] was 0.0902 µM, the GI50 [3] was 0.0397 µM and the TGI [3] was 0.187 µM. The GI50 [4] was 0.249 µM, the TGI [4] was 0.552 µM and the GI50 [5] was 0.086 µM. It also gave a TGI [5] of 0.237 µM, a GI50 [6] of 0.022 µM and a TGI [6] of 0.0442 µM. For the same molecule, the GI50 [7] was 0.0265 µM, the TGI [7] was 0.0711 µM and the GI50 [8] was 0.641 µM. For the same molecule, the TGI [8] was 3 µM, the GI50 [9] was 0.0159 µM and the TGI [9] was 0.0571 µM. The GI50 [10] was 0.208 µM and the TGI [10] was 0.369 µM.
